# Results: ChEMBL document CHEMBL3124777, “Synthesis and biological evaluation of thiazoline derivatives as new antimicrobial and anticancer agents” (Eur J Med Chem, 2014)
# Tests used:
# [1] = system: Pseudomonas aeruginosa; experiment: Antimicrobial activity against Pseudomonas aeruginosa […] after 18 to 24 hrs by microbroth dilution method; type: functional
# [2] = system: Penicillium chrysogenum; experiment: Antimicrobial activity against Penicillium chrysogenum NRRL 1951 after 48 to 72 hrs by microbroth dilution method; type: functional
# [3] = system: Fusarium culmorum; experiment: Antimicrobial activity against wild type Fusarium culmorum after 48 to 72 hrs by microbroth dilution method; type: functional
# [4] = system: Listeria monocytogenes; experiment: Antimicrobial activity against Listeria monocytogenes ATCC 7644 after 18 to 24 hrs by microbroth dilution method; type: functional
# [5] = system: Aspergillus ochraceus; experiment: Antimicrobial activity against Aspergillus ochraceus NRRL 3174 after 48 to 72 hrs by microbroth dilution method; type: functional
# [6] = system: Staphylococcus aureus; experiment: Antimicrobial activity against Staphylococcus aureus NRRL B-767 after 18 to 24 hrs by microbroth dilution method; type: functional
# [7] = system: Trichoderma harzianum; experiment: Antimicrobial activity against Trichoderma harzianum NRRL 20565 after 48 to 72 hrs by microbroth dilution method; type: functional
# [8] = system: Micrococcus luteus; experiment: Antimicrobial activity against Micrococcus luteus NRLL B-4375 after 18 to 24 hrs by microbroth dilution method; type: functional
# [9] = system: NIH3T3; experiment: Cytotoxicity against mouse NIH/3T3 cells after 24 hrs by MTT assay; type: cell-based; details: NIH3T3, 24 h
# [10] = system: Candida albicans; experiment: Antimicrobial activity against Candida albicans ATCC 22019 after 18 to 24 hrs by microbroth dilution method; type: functional
# [11] = system: Fusarium solani; experiment: Antimicrobial activity against Fusarium solani NRRL 13414 after 48 to 72 hrs by microbroth dilution method; type: functional
# [12] = system: Escherichia coli; experiment: Antimicrobial activity against Escherichia coli ATCC 25922 after 18 to 24 hrs by microbroth dilution method; type: functional
# [13] = system: Bacillus subtilis; experiment: Antimicrobial activity against Bacillus subtilis NRS-744 after 18 to 24 hrs by microbroth dilution method; type: functional
# [14] = system: Aspergillus parasiticus; experiment: Antimicrobial activity against Aspergillus parasiticus NRRL 465 after 48 to 72 hrs by microbroth dilution method; type: functional
# [15] = system: Fusarium verticillioides; experiment: Antimicrobial activity against Fusarium moniliforme NRRL 1866 after 48 to 72 hrs by microbroth dilution method; type: functional
Structure (SMILES),MIC [1] [µg/mL],MIC [2] [µg/mL],MIC [3] [µg/mL],MIC [4] [µg/mL],MIC [5] [µg/mL],MIC [6] [µg/mL],MIC [7] [µg/mL],MIC [8] [µg/mL],MIC [10] [µg/mL],MIC [11] [µg/mL],MIC [12] [µg/mL],MIC [13] [µg/mL],MIC [14] [µg/mL],MIC [15] [µg/mL],IC50 [9] [µg/mL]
Cn1nnnc1SCC(=O)N/N=c1/scc(-c2ccc(Br)cc2)n1-c1ccccc1,250,250,125,250,250,250,125,125,250,250,250,250,250,250,19.3
Cn1nnnc1SCC(=O)N/N=c1/scc(-c2ccc(Cl)cc2)n1-c1ccccc1,250,250,250,250,250,500,250,250,250,250,250,250,250,250,40
COc1ccc(-c2cs/c(=N/NC(=O)CSc3nnnn3C)n2-c2ccccc2)cc1,250,250,250,250,250,250,250,250,250,250,500,250,250,250,45
CC(=O)N1CCN(c2ccc(OCC3COC(Cn4ccnc4)(c4ccc(Cl)cc4Cl)O3)cc2)CC1 (centres undefined) [KETOCONAZOLE],–,7.8,500,–,250,–,250,–,250,500,–,–,125,500,–
COc1ccc(-c2cs/c(=N/NC(=O)CSc3nncn3C)n2-c2ccccc2)cc1,250,250,250,250,250,250,250,250,250,250,250,250,250,250,167
Cc1nnc(SCC(=O)N/N=c2/scc(-c3ccc(C#N)cc3)n2-c2ccccc2)s1,250,250,250,250,250,250,125,250,250,250,250,250,250,250,< 3.9

# Now from value to compound, other results behind:
MIC [1] [µg/mL],MIC [2] [µg/mL],MIC [3] [µg/mL],MIC [4] [µg/mL],MIC [5] [µg/mL],MIC [6] [µg/mL],MIC [7] [µg/mL],MIC [8] [µg/mL],MIC [10] [µg/mL],MIC [11] [µg/mL],MIC [12] [µg/mL],MIC [13] [µg/mL],MIC [14] [µg/mL],MIC [15] [µg/mL],Structure (SMILES),IC50 [9] [µg/mL]
250,250,250,250,250,500,250,250,250,250,250,250,250,250,Cc1nnc(SCC(=O)N/N=c2/scc(-c3ccc([N+](=O)[O-])cc3)n2-c2ccccc2)s1,177
250,250,250,250,250,250,250,250,250,250,250,250,250,250,O=C(CSc1ncccn1)N/N=c1/scc(-c2ccc([N+](=O)[O-])cc2)n1-c1ccccc1,193
125,250,250,250,250,250,250,250,250,250,250,250,250,250,N#Cc1ccc(-c2cs/c(=N/NC(=O)CSc3ncccn3)n2-c2ccccc2)cc1,< 3.9
125,–,–,7.81,–,31.2,–,15.6,–,–,31.2,15.6,–,–,CN[C@@H]1[C@H](O[C@H]2[C@H](O[C@H]3[C@H](O)[C@@H](O)[C@H](N=C(N)N)[C@@H](O)[C@@H]3N=C(N)N)O[C@@H](C)[C@]2(O)C=O)O[C@@H](CO)[C@H](O)[C@H]1O [STREPTOMYCIN],–
